Measured values taken from US7879792B2, “Synthetic peptide inhibitors of thrombin and thrombin activation of protease activated receptors 1 and 4” (The Regents of the University of Michigan, priority 2005, dated 2011).
“Also recorded” adds a separate entry of the source. Where a SMILES comes first, the peptide text is derived from it.

Legend:
human α-thrombin = human α-thrombin (Homo sapiens, UniProt P00734); assay: inhibition of α-thrombin hydrolysis of chromogenic substrate; format: biochemical; settings: Ki (μM) + SD, αIIa (2 nM), alpha-thrombin 2 nM, Sar-Pro-Arg-paranitroanilide
[1] = tested on: γ-thrombin-induced platelet aggregation; assay: γ-thrombin-induced platelet aggregation in human platelet-rich plasma; format: cell-based
Procedure: Fresh whole blood was collected and mixed with 0.013 M sodium citrate and platelet-rich plasma was prepared according to the method of Meloni et al., J. Biol. Chem. 266, 6786 (1991). Platelet-rich plasma with a normalized platelet count between 2-2.5×10^8 platelets/ml was added to a cuvette of an aggregometer (Chronlog Corp., Havertown, Pa.), standardized using the protocol of Meloni et al., supra. Peptides to be examined were added to the cuvette and the mixture stabilized for a few moments. Once the baseline was stabilized, γ-thrombin (10-70 nM) (Haematologic Technologies, Essex Junction, Vt.) was added to determine the minimal concentration of the agonist necessary to achieve full platelet aggregation. All investigations with peptides were performed using threshold concentrations of γ-thrombin. Aggregation was allowed to proceed for 5 minutes before stopping.
Table III is a tabulation of the library of peptides prepared and their influence on γ-thrombin-induced platelet aggregation in platelet-rich plasma. […] The numbers in the column represent the minimal concentration (mM) of the peptide that blocked 100% γ-thrombin-induced platelet aggregation of platelets in human platelet-rich plasma.
Human platelet samples were stimulated with 40 nM human gamma thrombin in each experiment.

[2] = tested on: normal human lung fibroblasts (NHLF); assay: α-thrombin-induced calcium mobilization in normal human lung fibroblasts; format: cell-based; settings: 2 nM alpha thrombin
Procedure: The second assay developed to assess peptides from the combinatorial libraries uses inhibition of α-thrombin-induced calcium mobilization in fibroblasts. Normal human lung fibroblasts (NHLF) were purchased from Clonetics, San Diego, Calif., an affiliate of Bio-Wittaker, Walkersville, Md. The cytoplasmic free Ca^2+ concentration ([Ca^2+]i) was measured using the fluorescent Ca^2+ indicator fura-2 (Molecular Probes, Inc., Eugene, Oreg.). Suspension of fibroblasts in Hepes-Tyrode's buffer were loaded with fura-2 by incubation at 37° C. with 2 μM fura-2/acetoxymethyl ester for 45 minutes according to the method of Rasmussen et al., J. Biol. Chem. 268, 14322 (1993). The labeled fibroblasts were separated from excess probe by washing by centrifugation at 1000 rpm (180 xg). Aliquots of the labeled fibroblasts were transferred into a quartz cuvette with a magnetic stirrer, which was then placed in a thermostatically controlled chamber at 37° C. in a fluorescence spectrophotometer (Perkin-Elmer LS50B spectrofluorometer, Chicago, Ill.). Reagents, test peptide, and α-thrombin (0.25-2 nM), were sequentially added directly to the cuvette. The excitation wavelengths varied between 340 and 380 nm. Fluorescence was measured by recording emitted light at 510 nm as reported by Fisher et al., Mol Pharm. 35, 195 (1989). The minimum emission was determined on a solubilized fibroblast sample in the presence of 10 mM EDTA; maximum emission was determined on the same sample with 10 mM Ca^2+ added. The intrafibroblast free Ca^2+ concentration was calculated by the method of Grykiewicz et al., J. Biol. Chem. 260, 3440 (1985). The ratio of the fluorescence readings was calculated as R=340/380 nm and processed according to the equation [Ca^2+]i=KD((R−Rmin)/Rmax−R))(Sf2/Sb2) to determine the intrafibroblast free Ca^2+ concentration. The KD for fura-2 was assumed to be 224 nM. Rmax and Rmin are the maximum and minimum fluorescence ratios measured at the end of the experiment, respectively; Sf2 and Sb2 are the fluorescence values at 380 nm in the absence and presence of saturating [Ca^2+], respectively. The reaction was monitored for 3-5 minutes.

γ-thrombin = assay: inhibition of γ-thrombin hydrolysis of chromogenic substrate; format: biochemical, human; settings: read-out: Ki (μM) + SD, γIIa (2 nM); gamma-thrombin 2 nM, Sar-Pro-Arg-paranitroanilide
C57BL6 mice = assay: Rose Bengal model for arterial thrombosis, time to carotid artery occlusion; format: in vivo, mouse; settings: 0.4 to 1.61 mg/kg IP
Source text: C57BL6 mice 6 to 16 weeks of age were anesthetized by intraperitoneal injection with sodium pentobarbital and placed in the supine position on a dissecting microscope (Nikon SMZ-2T, Mager Scientific, Inc., Dexter, Mich.). A midline surgical incision was made to expose the right common carotid artery and a Doppler flow probe (Model 0.5 VB, Transonic Systems, Ithaca, N.Y.) is placed under the vessel. The probe was connected to a flowmeter (Transonic Model T106) and was interpreted with a computerized data acquisition program (Windaq, DATAQ Instruments, Arkron, Ohio). Rose Bengal (4,5,6,7-tetrachloro-3′,6-dihydroxy-2,4,5,7-tetraiodospiro(isobenzofuran-1(3H), 9 [9H] xanthan)-3-1 dipotassium salt) (Fisher Scientific, Fair Lawn, N.J.) at 50 mg/kg in 0.9% saline) was then injected into the tail vein in a 0.12 ml volume (Eitzman et al., Blood 95, 577 (2000)). After injection into the tail vein, a green laser light (Melles Griot, Carlsbad, Calif.) at a wavelength of 540 nm was applied 6 cm from the carotid artery. Flow is monitored continuously from the onset of injury. The time to occlusion was determined only after the vessel remained closed with a cessation of blood flow for 20 min. […] These investigations indicate that these compounds are able to prevent thrombosis in the whole animal in vivo.

thrombin = thrombin (Homo sapiens, UniProt P00734); settings: read-out: Ki, retrobinders to the active site of thrombin; cited from earlier work

Molecule	Ki (human α-thrombin)	Concentration of Peptide [mM] That Gives 100% Inhibition ([1]; 40 nM human gamma thrombin, human platelet-rich plasma)	concentration that abolished γ-thrombin-induced platelet aggregation ([1]; 40 nM γ-thrombin)	alpha thrombin-induced calcium mobilization ([2]; 0.00038 mM peptide)	inhibition of thrombin-induced calcium mobilization ([2]; 0.003 mM peptide)	inhibition of thrombin-induced calcium mobilization ([2]; 0.08 mM peptide)	Ki (γ-thrombin)	time to occlusion of the mouse right carotid artery (C57BL6 mice)	Ki (thrombin)
Cc1ccc(C[C@H](NC(=O)[C@@H](CO)NC(=O)[C@@H]2CCCN2C(=O)[C@@H]2C[C@@H]3CCCC[C@@H]3N2C(=O)[C@H](N)CCCNC(=N)N)C(N)=O)cc1 [rOicPsF(p-Me), D-Arg-Oic-Pro-D-Ser-Phe(p-Me)] (HELM PEPTIDE1{[dR].[O=C([C@@H]1C[C@@H]2CCCC[C@@H]2N1[*:1])[*:2]].P.[dS].[Cc1ccc(C[C@H](N[*:1])C(=O)[*:2])cc1].[am]}$$$$V2.0)	6.4 to 10.6 µM	0.016 mM	16 µM	full recovery	59%	97%	42.2 ± 6 µM	significant prolongation; also recorded: prolonged	–
β-Ala-Lys-2Lys-4(Arg-Pro-Pro-Gly-Phe) [MAP4-RPPGF]	–	–	–	–	–	–	–	–	1.75 mM
